Test results published in US9399637B2, “Substituted heteroaryl compounds and methods of use” (Calitor Sciences, LLC, priority 2014, dated 2016).

Key:
Type in all cases: biochemical
JAK1 (h) = target: T1, JAK1 (h) (Homo sapiens, UniProt P23458); assay: JAK1 kinase assay
T1 construct: purchased Millipore UK Ltd (assays run there as a service)
Description: (§1) Kinase assays can be performed by measurement of incorporation of γ-^33P ATP into immobilized myelin basic protein (MBP). High binding white 384 well plates (Greiner) are coated with MBP (Sigma #M-1891) by incubation of 60 μL/well of 20 μg/mL MBP in Tris-buffered saline (TBS; 50 mM Tris pH 8.0, 138 mM NaCl, 2.7 mM KCl) for 24 h at 4° C. Plates are washed 3× with 100 μL TBS. Kinase reactions are carried out in a total volume of 34 μL in kinase buffer (5 mM Hepes pH 7.6, 15 mM NaCl, 0.01% bovine gamma globulin (Sigma #I-5506), 10 mM MgCl2, 1 mM DTT, 0.02% TritonX-100). Compound dilutions are performed in DMSO and added to assay wells to a final DMSO concentration of 1%. Each data point is measured in duplicate, and at least two duplicate assays are performed for each individual compound determination. Enzyme is added to final concentrations of 10 nM or 20 nM, for example. A mixture of unlabeled ATP and γ-^33P ATP is added to start the reaction (2×10^6 cpm of γ-^33P ATP per well (3000 Ci/mmole) and 10 μM unlabeled ATP, typically. The reactions are carried out for 1 h at room temperature with shaking Plates are washed 7× with TBS, followed by the addition of 50 μL/well scintillation fluid (Wallac). Plates are read using a Wallac Trilux counter. This is only one format of such assays; various other formats are possible, as known to one skilled in the art.
(§2) The above assay procedure can be used to determine the IC50 for inhibition and/or the inhibition constant, Ki. The IC50 is defined as the concentration of compound required to reduce the enzyme activity by 50% under the condition of the assay. The IC50 value is estimated by preparing a 10 point curve using a ½ log dilution series (for example, a typical curve may be prepared using the following compound concentrations: 3 μM, 1 μM, 0.3 μM, 0.1 μM, 0.03 μM, 0.01 μM, 0.003 μM, 0.001 μM, 0.0003 μM and 0 μM).
JAK1 (h) is incubated with 20 mM Tris/HCl pH 7.5, 0.2 mM EDTA, 500 μM […], 10 mM MgAcetate and [γ-^33P-ATP] (specific activity approx. 500 cpm/pmol, concentration as required).
(§3) The kinase assays described herein were performed at Millipore UK Ltd, Dundee Technology Park, Dundee DD2 1SW, UK.

JAK2 (h) = target: T2, JAK2 (h) (Homo sapiens, UniProt O60674); assay: JAK2 kinase assay
T2 construct: purchased Millipore UK Ltd (assays run there as a service)
T2 sequence (O60674 whole entry): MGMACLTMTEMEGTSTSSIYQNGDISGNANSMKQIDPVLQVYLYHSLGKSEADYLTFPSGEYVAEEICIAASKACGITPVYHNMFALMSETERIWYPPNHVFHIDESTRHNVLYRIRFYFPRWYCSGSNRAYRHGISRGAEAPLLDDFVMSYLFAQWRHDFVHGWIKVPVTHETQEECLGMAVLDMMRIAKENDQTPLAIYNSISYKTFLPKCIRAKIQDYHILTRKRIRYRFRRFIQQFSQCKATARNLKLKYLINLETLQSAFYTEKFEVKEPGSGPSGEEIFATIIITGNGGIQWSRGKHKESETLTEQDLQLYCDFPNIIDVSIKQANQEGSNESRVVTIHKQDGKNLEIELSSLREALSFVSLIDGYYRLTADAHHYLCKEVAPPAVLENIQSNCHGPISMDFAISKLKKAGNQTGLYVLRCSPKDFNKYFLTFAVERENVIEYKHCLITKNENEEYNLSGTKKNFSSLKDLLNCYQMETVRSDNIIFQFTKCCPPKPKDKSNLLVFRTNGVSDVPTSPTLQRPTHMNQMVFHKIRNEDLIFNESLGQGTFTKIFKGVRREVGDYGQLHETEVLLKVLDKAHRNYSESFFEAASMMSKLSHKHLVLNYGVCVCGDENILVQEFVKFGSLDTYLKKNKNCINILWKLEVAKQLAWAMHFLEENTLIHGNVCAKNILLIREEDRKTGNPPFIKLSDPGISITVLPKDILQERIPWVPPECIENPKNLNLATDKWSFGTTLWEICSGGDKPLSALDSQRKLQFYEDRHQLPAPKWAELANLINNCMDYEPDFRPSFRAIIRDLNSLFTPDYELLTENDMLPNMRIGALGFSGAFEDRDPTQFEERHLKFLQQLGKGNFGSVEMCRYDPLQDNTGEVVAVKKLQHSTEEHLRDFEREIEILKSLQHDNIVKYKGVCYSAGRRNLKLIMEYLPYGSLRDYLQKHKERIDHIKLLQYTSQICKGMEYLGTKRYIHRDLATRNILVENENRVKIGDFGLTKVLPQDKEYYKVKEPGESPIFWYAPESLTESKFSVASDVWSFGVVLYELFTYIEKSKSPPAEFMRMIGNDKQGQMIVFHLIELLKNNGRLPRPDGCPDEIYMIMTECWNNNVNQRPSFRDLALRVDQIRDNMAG
Description: as §1, §2
(specific activity approx. 500 cpm/pmol, concentration as required).
as §3

JAK3 (h) = target: T3, JAK3 (h) (Homo sapiens, UniProt P52333); assay: JAK3 kinase assay
T3 construct: purchased Millipore UK Ltd (assays run there as a service)
T3 sequence (P52333 1-1124): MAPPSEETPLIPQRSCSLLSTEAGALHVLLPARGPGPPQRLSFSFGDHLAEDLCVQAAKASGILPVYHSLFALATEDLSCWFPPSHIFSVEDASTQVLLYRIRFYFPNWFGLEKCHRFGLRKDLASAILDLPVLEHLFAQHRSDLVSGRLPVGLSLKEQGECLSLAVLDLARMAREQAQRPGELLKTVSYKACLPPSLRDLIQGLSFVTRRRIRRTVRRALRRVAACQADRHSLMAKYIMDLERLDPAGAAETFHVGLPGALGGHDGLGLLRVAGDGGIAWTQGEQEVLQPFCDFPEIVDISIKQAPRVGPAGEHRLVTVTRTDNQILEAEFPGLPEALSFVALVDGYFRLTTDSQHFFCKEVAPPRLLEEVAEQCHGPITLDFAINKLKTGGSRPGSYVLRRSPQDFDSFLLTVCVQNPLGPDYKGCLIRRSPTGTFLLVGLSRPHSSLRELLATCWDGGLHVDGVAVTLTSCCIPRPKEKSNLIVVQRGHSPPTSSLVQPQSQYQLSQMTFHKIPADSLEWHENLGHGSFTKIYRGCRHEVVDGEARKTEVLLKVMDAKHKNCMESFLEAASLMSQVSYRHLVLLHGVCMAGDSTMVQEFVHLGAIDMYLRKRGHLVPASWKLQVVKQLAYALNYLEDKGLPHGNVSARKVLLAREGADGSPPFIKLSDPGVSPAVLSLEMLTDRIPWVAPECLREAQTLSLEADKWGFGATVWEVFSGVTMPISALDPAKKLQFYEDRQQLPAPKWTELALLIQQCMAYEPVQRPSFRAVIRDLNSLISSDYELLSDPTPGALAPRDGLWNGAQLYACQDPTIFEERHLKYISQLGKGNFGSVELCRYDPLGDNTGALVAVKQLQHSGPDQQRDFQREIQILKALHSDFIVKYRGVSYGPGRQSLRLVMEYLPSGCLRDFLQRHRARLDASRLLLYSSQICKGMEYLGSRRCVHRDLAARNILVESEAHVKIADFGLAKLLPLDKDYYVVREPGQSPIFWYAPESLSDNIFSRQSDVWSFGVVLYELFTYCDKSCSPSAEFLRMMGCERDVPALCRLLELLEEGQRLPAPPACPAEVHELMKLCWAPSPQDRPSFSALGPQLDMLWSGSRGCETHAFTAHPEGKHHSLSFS
Description: as §1, with “art. […]” for “art.”

T1 sequence (P23458 whole entry): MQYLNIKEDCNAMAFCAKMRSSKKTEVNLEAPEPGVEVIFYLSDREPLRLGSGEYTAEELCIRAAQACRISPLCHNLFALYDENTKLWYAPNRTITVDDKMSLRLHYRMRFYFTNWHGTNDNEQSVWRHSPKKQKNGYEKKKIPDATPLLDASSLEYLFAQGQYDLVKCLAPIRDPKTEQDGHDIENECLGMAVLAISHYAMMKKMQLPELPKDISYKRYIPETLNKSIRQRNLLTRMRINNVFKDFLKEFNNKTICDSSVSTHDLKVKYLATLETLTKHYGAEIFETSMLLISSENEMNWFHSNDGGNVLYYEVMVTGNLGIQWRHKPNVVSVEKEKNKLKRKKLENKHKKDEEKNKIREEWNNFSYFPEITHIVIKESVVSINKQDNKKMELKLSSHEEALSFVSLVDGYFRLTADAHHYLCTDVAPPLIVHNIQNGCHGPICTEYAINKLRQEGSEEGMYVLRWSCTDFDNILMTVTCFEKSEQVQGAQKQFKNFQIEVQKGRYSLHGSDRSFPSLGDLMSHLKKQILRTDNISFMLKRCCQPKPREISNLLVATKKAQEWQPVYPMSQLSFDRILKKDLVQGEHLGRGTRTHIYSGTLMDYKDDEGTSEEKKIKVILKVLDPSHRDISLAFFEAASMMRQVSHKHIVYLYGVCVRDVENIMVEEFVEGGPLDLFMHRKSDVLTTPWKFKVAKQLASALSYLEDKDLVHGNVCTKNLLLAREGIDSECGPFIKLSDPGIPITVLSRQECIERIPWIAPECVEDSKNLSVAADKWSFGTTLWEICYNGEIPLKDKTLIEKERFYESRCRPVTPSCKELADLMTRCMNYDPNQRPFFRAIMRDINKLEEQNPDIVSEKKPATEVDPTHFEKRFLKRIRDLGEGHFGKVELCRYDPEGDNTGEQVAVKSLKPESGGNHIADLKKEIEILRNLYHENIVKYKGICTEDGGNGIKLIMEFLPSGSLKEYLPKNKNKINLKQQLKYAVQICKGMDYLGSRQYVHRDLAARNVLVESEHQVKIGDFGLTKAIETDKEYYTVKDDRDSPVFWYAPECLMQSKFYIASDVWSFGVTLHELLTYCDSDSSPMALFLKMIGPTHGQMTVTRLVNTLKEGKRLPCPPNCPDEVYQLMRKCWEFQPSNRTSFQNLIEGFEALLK

## Cc1c2ccc(Nc3ncc(Cl)c(NC4CC5CN(C(=O)CC#N)CC5C4)n3)cc2nn1C (stereo not drawn) [Ex. 4, 3-(5-((5-chloro-2-((2,3-dimethyl-2H-indazol-6-yl)amino)pyrimidin-4-yl)amino)hexahydrocyclopenta[c]pyrrol-2(1H)-yl)-3-oxopropanenitrile]
JAK1 (h)
  IC50: 1 nM
JAK2 (h)
  IC50: 9 nM
JAK3 (h)
  IC50: 535 nM

## CC(=O)N1CCC2(CCC(Nc3nc(Nc4ccc5c(C)n(C)nc5c4)ncc3Cl)CC2)CC1 [Ex. 7, 1-(9-((5-chloro-2-((2,3-dimethyl-2H-indazol-6-yl)amino)pyrimidin-4-yl)amino)-3-azaspiro[5.5]undecan-3-yl)ethanone]
JAK1 (h)
  IC50: 0.9 nM
JAK2 (h)
  IC50: 2 nM
JAK3 (h)
  IC50: 142 nM
